Values quoted from earlier work in PubChem BioAssay AID1259409 (Chemical Carcinogenesis Research Information System (CCRIS), 2018).

Tested on: rodent chemically induced tumor inhibition, incidence and multiplicity
Test: CCRIS tumor inhibitor studies
Settings: Species: MOUSE

## CCOC(=O)/C=C(C)/C=C/C=C(C)/C=C/c1c(C)cc(OC)c(C)c1C
Carcinogen: 7,12-DIMETHYLBENZ[A]ANTHRACENE, 57-97-6, Dose [Inhibitor]: 140 NMOL IN 0.2 ML ACETONE 2/WK (D 1 AND D 4 OF EACH WK) 1 HR BEFORE EACH PROMOTER APPLICATION STARTING 14 D AFTER CARCI, Route [Inhibitor]: DERMAL, Strain/Sex: CD-1/FEMALE, Target Tissue: Type of Lesion: SKIN: PAPILLOMA, Dose [Carcinogen]: 0.2 UMOL IN 0.2 ML ACETONE ONCE, Promoter: 12-O-TETRADECANOYLPHORBOL-13-ACETATE, 16561-29-8
  tumour outcome (control, treated, inhibition, significance): 90%, 38%, 58%, not calculated
Carcinogen: TRANS-5-AMINO-3-[2-(5-NITRO-2-FURYL)VINYL]-1,2,4-OXADIAZOLE;SQL8506, 28754-68-9, Carcinogen: TRANS-5-AMINO-3-[2-(5-NITRO-2-FURYL)VINYL]-1,2,4-OXADIAZOLE;SQL8506, 28754-68-9, Dose [Inhibitor]: 75 MG/KG 18 HR BEFORE THE 1ST DOSE OF EACH CARCINOGEN TREATMENT (STUDY DURATION: LIFETIME), Route [Inhibitor]: ORAL, Strain/Sex: CD-1/FEMALE, Target Tissue: Type of Lesion: HEMATOPOIETIC SYSTEM: MYELOID LEUKEMIA, Dose [Carcinogen]: 1 G/KG 2/D FOR 5 D EVERY 4 WK FOR 3 COURSES OF TREATMENT, Promoter: NONE USED
  tumour outcome (control, treated, inhibition, significance): 7/137 (5%), 0/44 (0%), 100%, not calculated
Carcinogen: TRANS-5-AMINO-3-[2-(5-NITRO-2-FURYL)VINYL]-1,2,4-OXADIAZOLE;SQL8506, 28754-68-9, Carcinogen: TRANS-5-AMINO-3-[2-(5-NITRO-2-FURYL)VINYL]-1,2,4-OXADIAZOLE;SQL8506, 28754-68-9, Dose [Inhibitor]: 75 MG/KG 18 HR BEFORE THE 1ST DOSE OF EACH CARCINOGEN TREATMENT (STUDY DURATION: LIFETIME), Route [Inhibitor]: ORAL, Strain/Sex: CD-1/FEMALE, Target Tissue: Type of Lesion: LYMPHOID TISSUE: NONTHYMIC LYMPHOMA, Dose [Carcinogen]: 1 G/KG 2/D FOR 5 D EVERY 4 WK FOR 3 COURSES OF TREATMENT, Promoter: NONE USED
  tumour outcome (control, treated, inhibition, significance): 8/137 (6%), 6/44 (14%), -133%, not calculated
Carcinogen: TRANS-5-AMINO-3-[2-(5-NITRO-2-FURYL)VINYL]-1,2,4-OXADIAZOLE;SQL8506, 28754-68-9, Carcinogen: TRANS-5-AMINO-3-[2-(5-NITRO-2-FURYL)VINYL]-1,2,4-OXADIAZOLE;SQL8506, 28754-68-9, Dose [Inhibitor]: 75 MG/KG 18 HR BEFORE THE 1ST DOSE OF EACH CARCINOGEN TREATMENT (STUDY DURATION: LIFETIME), Route [Inhibitor]: ORAL, Strain/Sex: CD-1/FEMALE, Target Tissue: Type of Lesion: LYMPHOID TISSUE: THYMIC LYMPHOMA, Dose [Carcinogen]: 1 G/KG 2/D FOR 5 D EVERY 4 WK FOR 3 COURSES OF TREATMENT, Promoter: NONE USED
  tumour outcome (control, treated, inhibition, significance): 22/137 (16%), 5/44 (11%), 31%, not calculated
Carcinogen: TRANS-5-AMINO-3-[2-(5-NITRO-2-FURYL)VINYL]-1,2,4-OXADIAZOLE;SQL8506, 28754-68-9, Carcinogen: TRANS-5-AMINO-3-[2-(5-NITRO-2-FURYL)VINYL]-1,2,4-OXADIAZOLE;SQL8506, 28754-68-9, Dose [Inhibitor]: 75 MG/KG 18 HR BEFORE THE 1ST DOSE OF EACH CARCINOGEN TREATMENT (STUDY DURATION: LIFETIME), Route [Inhibitor]: ORAL, Strain/Sex: CD-1/FEMALE, Target Tissue: Type of Lesion: STOMACH: SQUAMOUS CARCINOMA, Dose [Carcinogen]: 1 G/KG 2/D FOR 5 D EVERY 4 WK FOR 3 COURSES OF TREATMENT, Promoter: NONE USED
  tumour outcome (control, treated, inhibition, significance): 60/137 (44%), 26/44 (59%), -34%, not calculated

## CCCC(=O)OC[C@@H](OC(=O)CCC)[C@@H](OC(=O)CCC)[C@H](Cn1c2nc(=O)[nH]c(=O)c-2nc2cc(C)c(C)cc21)OC(=O)CCC
Carcinogen: 3-METHYLCHOLANTHRENE, 56-49-5, Dose [Inhibitor]: 0.1% IN 0.05 ML ACETONE 2 HR AFTER APPLICATION OF THE CARCINOGEN THEN 1/2 D (STUDY DURATION: 15 WK), Route [Inhibitor]: DERMAL, Strain/Sex: DDY/FEMALE, Target Tissue: Type of Lesion: SKIN: PAPILLOMA, Dose [Carcinogen]: 0.3% IN 0.05 ML ACETONE 2/WK, Promoter: NONE USED
  tumour outcome (control, treated, inhibition, significance): 7/50 (14%), 2/49 (4%), 71%, not calculated
Carcinogen: 3-METHYLCHOLANTHRENE, 56-49-5, Dose [Inhibitor]: 0.1% IN 0.05 ML ACETONE 2 HR AFTER APPLICATION OF THE CARCINOGEN THEN 1/2 D (STUDY DURATION: 15 WK), Route [Inhibitor]: DERMAL, Strain/Sex: DDY/FEMALE, Target Tissue: Type of Lesion: SKIN: SQUAMOUS CELL CARCINOMA, Dose [Carcinogen]: 0.3% IN 0.05 ML ACETONE 2/WK, Promoter: NONE USED
  tumour outcome (control, treated, inhibition, significance): 34/50 (68%), 20/49 (41%), 40%, p<0.01

## CCC1OC(C)=C(O)C1=O (stereo unspecified)
Carcinogen: BENZO[A]PYRENE, 50-32-8, Dose [Inhibitor]: 0, 25 PPM IN DIET BEGINNING POST CARCINOGEN TREATMENT AND CONTINUING FOR DURATION OF STUDY (STUDY DURATION: 148 D), Route [Inhibitor]: ORAL, Strain/Sex: ICR/FEMALE, Target Tissue: Type of Lesion: FORESTOMACH: TUMOR, Dose [Carcinogen]: 1.5 MG IN 0.2 ML CORN OIL 1/WK FOR 4 WK, Promoter: NONE USED
  tumour outcome (control, treated, inhibition, significance): 100%, 76%, 24%, not calculated
Carcinogen: BENZO[A]PYRENE, 50-32-8, Dose [Inhibitor]: 0, 50 PPM IN DIET BEGINNING POST CARCINOGEN TREATMENT AND CONTINUING FOR DURATION OF STUDY (STUDY DURATION: 148 D), Route [Inhibitor]: ORAL, Strain/Sex: ICR/FEMALE, Target Tissue: Type of Lesion: FORESTOMACH: TUMOR, Dose [Carcinogen]: 1.5 MG IN 0.2 ML CORN OIL 1/WK FOR 4 WK, Promoter: NONE USED
  tumour outcome (control, treated, inhibition, significance): 100%, 54%, 46%, not calculated
Carcinogen: BENZO[A]PYRENE, 50-32-8, Dose [Inhibitor]: 0, 75 PPM IN DIET BEGINNING POST CARCINOGEN TREATMENT AND CONTINUING FOR DURATION OF STUDY (STUDY DURATION: 148 D), Route [Inhibitor]: ORAL, Strain/Sex: ICR/FEMALE, Target Tissue: Type of Lesion: FORESTOMACH: TUMOR, Dose [Carcinogen]: 1.5 MG IN 0.2 ML CORN OIL 1/WK FOR 4 WK, Promoter: NONE USED
  tumour outcome (control, treated, inhibition, significance): 100%, 75%, 25%, not calculated

## S=C=Nc1cc2c3ccccc3ccc2c2ccccc12
Carcinogen: BENZO[A]PYRENE, 50-32-8, Dose [Inhibitor]: 0, 5 UMOL IN ACETONE 4 HR PRIOR TO CARCINOGEN DOSE (STUDY DURATION: 20 WK), Route [Inhibitor]: DERMAL, Strain/Sex: STRAIN-A/FEMALE, Target Tissue: Type of Lesion: SKIN: TUMOR, Dose [Carcinogen]: 0.1 UMOL IN ACETONE ONCE, Promoter: 12-O-TETRADECANOYLPHORBOL-13-ACETATE, 16561-29-8
  outcome: 85%, 74%, 13%, not significant at 15 wk; 95%, 80%, 16%, not significant at 20 wk
